According to patent US5773423A (priority 1994, dated 1998):
Entries after “also recorded” stand apart in the source; their conditions may differ. Where two headings read alike, the source gives them in different places.

Assays:
[1] = tested on: locomotor activity in mice; test: Locomotor activity in mice (open field, Digiscan activity monitor); format: in vivo, mouse (NIH Swiss)
[2] = tested on: forebrain ischemia in gerbils; test: Forebrain ischemia in gerbils (bilateral carotid occlusion); format: in vivo, Mongolian gerbil
Method: Ischemia was effected by bilateral occlusion of the carotid arteries. Control gerbils were injected with saline (0.15 ml, i.p. for 10 days). During postischemic recovery, the rate of cerebral blood flow return to pre-ischemia level, neurological status, and survival were monitored. After 7 days, all surviving animals were perfused with formaldehyde for further studies of morphology and histochemistry.

[3] = tested on: cardiovascular parameters in rats; format: in vivo, rat
Method: Rats (each weighing 300-340 g) were lightly anesthetized using 1.5-2% halothane. They were monitored for heart rate with a tail sensor and blood pressure using the tail cuff method. Peripheral blood flow (scalp) was monitored using a Perimed laser Doppler blood flow apparatus, with a narrow diameter probe placed in contact with the shaved skin above the center of the cranium. A small amount of clear gel was applied to maintain uniform transmission of light. Body temperature was measured using a rectal probe. Respiratory rate was also recorded. Measurements were made at regular intervals: every 2 min for the first ten min period, and every five min thereafter, until 30 min, at which time a 30 min interval was used, until 90 min. […] Drugs were dissolved in a vehicle consisting of an 80:20 mixture of Alkamuls EL-620 and saline, pH 7.4. […] When administered alone, the agonist was given at the beginning of the monitoring period. When coadministered with an antagonist, the antagonist was given at the beginning of the monitoring period, and the agonist was given after 10 min.

[4] = tested on: injection-induced anxiety in mice; test: Anxiolytic effect in C57BL/J mice (responses to handling); format: in vivo, mouse (C57BL/J); conditions: chronic, 100 μg/kg
[5] = tested on: NMDA-evoked seizures in mice; format: in vivo
[6] = tested on: pentamethylenetetrazole-induced convulsions in mice; format: in vivo
[7] = tested on: electroconvulsive shock in mice; format: in vivo
[8] = tested on: spontaneous seizures in gerbils; test: Spontaneous seizures in gerbils on immersion in water maze; format: in vivo, gerbil
Method: During the studies of behavioural responses of gerbils to adenosine receptor stimulation, animals were exposed to the water maze model of spatial learning and memory. The control group (n=15) was injected with the vehicle given i.p. for 6 weeks prior to water maze tests. Twenty-four hours after the last injection, animals were exposed to the swim task. Immersion of animals in the swim tank whose water was kept at 32° C. produced an immediate, long-lasting (up to 2 min) seizure complex that was presented as myoclonic convulsions, followed by a period of rigidity and hind-limb extension.

[9] = tested on: spatial memory in gerbils; test: Learning and memory in gerbils (Morris water maze) and open field; format: in vivo, gerbil; conditions: chronic
[10] = Basal or systemic blood pressure (chronic use, malignant hypotension); format: in vivo
phospholipase C = conditions: acute administration; 'it is known'; cited from earlier work
[11] = Rectal temperature of mice under light halothane anesthesia; conditions: 100 μg/kg acute (15 min) or chronic (24 h after last injection)
[12] = molecular target: T1, adenosine uptake sites in rat brain membranes (Rattus norvegicus, UniProt O54698); test: Competition for [3H]NBTI binding at adenosine uptake sites in rat striatal membranes; conditions: read-out: Ki (NBTI); 0.3 nM [3H]NBTI, 30 min at 23° C., pH 7.4
T1 sequence (O54698 1-457): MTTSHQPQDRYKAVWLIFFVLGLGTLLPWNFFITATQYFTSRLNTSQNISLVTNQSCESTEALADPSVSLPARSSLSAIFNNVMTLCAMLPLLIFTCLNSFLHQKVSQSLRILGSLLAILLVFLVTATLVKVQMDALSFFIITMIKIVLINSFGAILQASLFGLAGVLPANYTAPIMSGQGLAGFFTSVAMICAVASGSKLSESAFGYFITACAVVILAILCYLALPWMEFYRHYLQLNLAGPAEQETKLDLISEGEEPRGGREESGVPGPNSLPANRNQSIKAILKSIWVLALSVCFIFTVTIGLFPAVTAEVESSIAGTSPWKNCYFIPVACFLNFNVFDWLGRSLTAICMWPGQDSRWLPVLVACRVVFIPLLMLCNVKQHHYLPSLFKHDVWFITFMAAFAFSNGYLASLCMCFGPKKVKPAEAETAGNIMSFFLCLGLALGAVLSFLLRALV

[13] = molecular target: T1, adenosine uptake sites in rat brain membranes; design: Rat striatal membranes, prepared as above; from tissue; host or cells: rat striatal membranes; conditions: read-out: Kd value used for [3H]NBTI Ki calculation; cited from earlier work
rat brain A1 receptors = molecular target: T2, rat brain A1 receptors (Rattus norvegicus, UniProt P25099); test: Displacement of [125I]APNEA binding in rat brain membranes; conditions: read-out: IC50 vs. displacement of specific binding of [125I]APNEA, Ki (A1) column of Table 2, footnote f
T2 construct: in rat brain membranes; from tissue; host or cells: rat brain membranes
T2 sequence (P25099 1-326): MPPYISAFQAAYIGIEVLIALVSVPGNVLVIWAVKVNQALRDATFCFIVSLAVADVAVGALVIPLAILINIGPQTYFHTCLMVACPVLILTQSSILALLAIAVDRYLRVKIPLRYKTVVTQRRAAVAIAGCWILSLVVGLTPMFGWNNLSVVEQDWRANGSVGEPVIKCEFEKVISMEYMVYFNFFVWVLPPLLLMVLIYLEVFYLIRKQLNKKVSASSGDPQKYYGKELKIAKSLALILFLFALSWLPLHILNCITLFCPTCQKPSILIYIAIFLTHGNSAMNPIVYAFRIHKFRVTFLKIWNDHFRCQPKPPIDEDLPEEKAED

[14] = acute, 15 min prior to 10 min ischemia
[15] = chronic 10 days, 10 min ischemia
[16] = acute IB-MECA 10 μg/kg + NMDA 60 mg/kg, NS
[17] = acute IB-MECA 50 μg/kg + NMDA 60 mg/kg, NS
[18] = acute IB-MECA 100 μg/kg + NMDA 60 mg/kg
[19] = acute IB-MECA 100 μg/kg + NMDA 60 mg/kg, P<0.05
[20] = chronic IB-MECA 100 μg/kg + NMDA 60 mg/kg, P<0.05
[21] = acute IB-MECA 100 μg/kg + PMT 75 mg/kg
[22] = acute IB-MECA 100 μg/kg + PMT 75 mg/kg, P<0.05
[23] = chronic IB-MECA 100 μg/kg + PMT 75 mg/kg
[24] = chronic IB-MECA 100 μg/kg + PMT 75 mg/kg, P<0.05

In the case of `CNC(=O)[C@H]1O[C@@H](n2cnc3c(NCc4cccc(I)c4)ncnc32)[C@H](O)[C@@H]1O` [Compound 42, N^6-(3-iodobenzyl)adenosine-5'-N-methyluronamide], the “reduction in locomotor activity at chosen dose” value ([1]; APEC 16 μg/kg, 3-IB-MECA 100 μg/kg i.p.) is reported as “ca. 50%”, the minimal effective dose ([1]; Mus musculus, ip, read-out: threshold dose for locomotor depression) is reported as 0.01 mg/kg and the “dose of maximal locomotor depression” value ([1]; i.p.) is reported as “about 0.1 mg/kg”. For the same compound, the “scratching behavior (in words)” value ([1]; i.p.) was “rapid scratching behavior”, the “locomotor measures (in words)” value ([1]; i.p., listed as 3-IB-MECA) was “Vertical activity, stereotype counts, and rotational movement were depressed in a dose-dependent manner; also recorded: average distance per move and average speed were not changed significantly” and the “plateau of locomotor depression below control level” value ([1]; total distance traveled, higher doses) was “ca. 60%”. The “postischemic effect (in words)” value ([2]; acute (15 min) or chronic (10 days), 100 μg/kg, listed as IB-MECA) was “impairment of postischemic cortical blood flow rate, increased mortality rate, and extensive neuronal destruction in the hippocampus; also recorded: improved post-ischemic blood reflow, increased survival”, the surviving hippocampal neurons ([2]; acute (15 min), 10 min ischemia, 100 μg/kg) was “about 30%” and the “survival for 7 days” value ([2]; acute, 100 μg/kg i.p. 15 min prior to 10 min ischemia) was “Ten percent”. For the same compound, the “animals with irreversible coma” value ([2]; acute, 10 min ischemia) was 40%, the animals with seizures ([2]; acute, 10 min ischemia) was 60% and the “mortality within 12 hr post-ischemia” value [2, 14] was 90%. For the same compound, the “time to full recovery of post-ischemic blood flow” value [2, 14] was “over 3.5 hr”, the end-point mortality ([2]; acute, repeated experiment, FIG. 6, p<0.01) was 90% and the “neurological side effects without ischemia (in words)” value ([2]; acutely and chronically treated) was “No neurological side effects were observed”. The “animals with mild hyperactivity” value [2, 15] was 40%, the “survival for 7 days (in words)” value [2, 15] was “All those gerbils” and the “time to full recovery of post-ischemic blood flow” value [2, 15] was “about 90 min”. The “survival for 7 days” value ([2]; chronic 10 days, 20 min ischemia) was 90%, the surviving hippocampal neurons ([2]; chronic (10 days), 10 min ischemia, 100 μg/kg) was over 80% and the survival ([2]; chronic, repeated experiment, FIG. 6, p<0.01) was 90%. For the same compound, the “duration of hypotensive effect” value ([3]; 0.1 mg/kg) was 90 min, the “blood flow and respiratory rates (in words)” value ([3]; 0.1 mg/kg i.p.) was “not significant” and the “blood pressure (in words)” value ([3]; 0.1 mg/kg i.p.) was “lowering of the blood pressure”. The “heart rate (in words)” value ([3]; 0.1 mg/kg i.p.) was “little effect on heart rate”, the “drop in body temperature” value ([3]; 0.1 mg/kg i.p., after about 30 min post-injection) was “approximately 0.5 °C” and the “onset of hypotensive effect” value ([3]; 0.1 mg/kg, post-injection) was at most 2 min. The “injection-induced anxiety or stress responses (in words)” value [4] was “almost no injection-induced anxiety or stress behavioral responses”, the “incidence of seizures or degree of neurological impairment (in words)” value ([5]; acute IB-MECA 10 μg/kg + NMDA 60 mg/kg) was “no effect on either the incidence of seizures, or the degree of neurological impairment” and the “% Convulsing” value [5, 16] was 50%. The “% Mortality at 24 h” value [5, 16] was 50%, the “Impairment (scale 1-6)” value [5, 16] was 2.7 + 0.6 and the “Ave. Latency to Seizures” value ([5]; acute IB-MECA 10 μg/kg + NMDA 60 mg/kg, P<0.05) was 581 + 107 sec. The “% Mortality at 24 h” value [5, 17] was 27%, the “Impairment (scale 1-6)” value [5, 17] was 2.0 + 0.5 and the “% Convulsing” value ([5]; acute IB-MECA 50 μg/kg + NMDA 60 mg/kg, P<0.05) was 10%. For the same compound, the “Ave. Latency to Seizures” value ([5]; acute IB-MECA 50 μg/kg + NMDA 60 mg/kg, only one animal) was 12 s, the “% Convulsing” value [5, 18] was 0% and the “clinically manifested seizures (in words)” value [5, 18] was “completely absent”. For the same compound, the “duration of lethargic behaviour” value [5, 18] was 45 to 60 min, the “% Mortality at 24 h” value [5, 19] was 10% and the “Impairment (scale 1-6)” value [5, 19] was 1.4 + 0.4. For the same compound, the “animals with tonic seizures” value ([5]; chronic IB-MECA 100 μg/kg + NMDA 60 mg/kg) was 20%, the “% Convulsing” value [5, 20] was 30% and the “Ave. Latency to Seizures” value [5, 20] was 689 + 108 sec. For the same compound, the “Impairment (scale 1-6)” value [5, 20] was 1.8 + 0.4, the “onset of seizures and overall mortality after PMT (in words)” value ([6]; acute IB-MECA) was “significantly reduced” and the Impairment [6, 21] was 4.1 + 0.5. The “Mortality 0.4-5 h” value [6, 21] was 0%, the “Mortality <15 min” value [6, 21] was 40% and the “Mortality >5 h” value [6, 21] was 10%. The “Mortality Overall” value [6, 22] was 50%, the “Onset of convulsive behavior” value [6, 22] was 112 s and the “Mortality 0.4-5 h” value [6, 23] was 10%. The “Mortality <15 min” value [6, 23] was 40%, the “Mortality >5 h” value [6, 23] was 0% and the “Onset of convulsive behavior” value [6, 23] was 120 s. The Impairment [6, 24] was 3.3 + 0.5, the “Mortality Overall” value [6, 24] was 50% and the “onset of seizures or neurological impairment after PMT (in words)” value ([6]; chronic IB-MECA + PMT 75 mg/kg) was “no significant effect on either the onset of seizures or neurological impairment”. For the same compound, the “electroshock threshold voltage (in words)” value ([7]; acute IB-MECA) was “insignificant increase of threshold voltage”, the “% Mortality at 24 h” value ([7]; acute IB-MECA 100 μg/kg + E.S.) was 70% and the Threshold voltage ([7]; acute IB-MECA 100 μg/kg + E.S.) was 106 + 10. For the same compound, the “electroshock threshold voltage / postictal mortality (in words)” value ([7]; chronic IB-MECA) was “no significant changes in threshold voltage; also recorded: postictal mortality was significantly reduced”, the Threshold voltage ([7]; chronic IB-MECA 100 μg/kg + E.S.) was 118 + 13 and the “% Mortality at 24 h” value ([7]; chronic IB-MECA 100 μg/kg + E.S., p<0.05) was 30%. The “seizing activity (in words)” value ([8]; acute) was “worsen the seizing activity”, the “seizing activity during swim task (in words)” value ([8]; chronic, 100 μg/kg i.p. daily for 6 wks) was “entirely eliminated seizing activity” and the “locomotor behavior in open field (in words)” value [9] was “did not show any significant differences in locomotor behavior”. The “average time to target” value ([9]; 100 μg/kg daily for 2 months, p<0.04 vs controls 40 sec) was 30 s, the “basal or systemic blood pressure after administration” value ([10]; from about 70 mm Hg) was “about 90 mm Hg” and the “increase in basal or systemic blood pressure” value ([10]; in vivo) was 10-30%. The “stimulation of phospholipase C and inositol 1,4,5-triphosphate production (in words)” value (phospholipase C) was “stimulation of phospholipase C and an enhanced production of inositol 1,4,5-triphosphate”, the “rectal temperature (in words)” value [11] was “no significant temperature differences” and the Ki [12] was 28200 nM.
For `O=[N+]([O-])c1ccc(CSc2ncnc3c2ncn3[C@@H]2O[C@H](CO)[C@@H](O)[C@H]2O)cc1` [[^3 H]NBTI], the Kd [13] is given as 0.15 nM.
In the case of `Nc1ccc(CCNc2ncnc3c2ncn3[C@@H]2O[C@H](CO)[C@@H](O)[C@H]2O)cc1I` [[^125 I]APNEA, [^125 I]N^6-2-(4-aminophenyl)ethyladenosine], the IC50 (rat brain A1 receptors) is reported as 2.1 nM.
